Target: T1, CXCR7 (Homo sapiens, UniProt P25106)
T1 construct: expressed in transfected cells; host or cells: CHO cells (CHO-CXCR7), transgenes maintained with Hygromycin B and G418
Assay: CXCR7 β-arrestin recruitment assay in CHO-CXCR7 cells (ProLink/EA β-galactosidase complementation), induced by human SDF-1a
Assay type: cell-based
Settings: assay buffer, SDF-1a at EC50 concentration
Summary of the method: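 SDF-1α-induced β-arrestin recruitment was measured by enzyme-fragment complementation (ProLink-CXCR7 with β-arrestin-EA) in stable CHO cells. Agonist was dosed at its EC50, determined the same day, alongside serially diluted compound for 1.5 h at 37 °C. Fluorogenic galactoside substrate (0.4 mM, 30 min) was read at 360/465 nm, with IC50 from 3-parameter nonlinear regression.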

T1 sequence (P25106 whole entry): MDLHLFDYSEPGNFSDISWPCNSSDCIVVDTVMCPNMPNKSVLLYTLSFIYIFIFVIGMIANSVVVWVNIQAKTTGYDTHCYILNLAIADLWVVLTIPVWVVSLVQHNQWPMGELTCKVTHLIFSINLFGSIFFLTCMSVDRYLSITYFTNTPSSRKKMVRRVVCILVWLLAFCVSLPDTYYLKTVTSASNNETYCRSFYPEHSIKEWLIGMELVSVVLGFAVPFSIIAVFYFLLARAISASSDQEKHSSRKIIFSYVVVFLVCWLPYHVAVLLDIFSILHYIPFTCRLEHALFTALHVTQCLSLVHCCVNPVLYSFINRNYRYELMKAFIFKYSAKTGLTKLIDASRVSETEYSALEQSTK

IC50 [nM]	SMILES
< 5	CC1(C)CCC(N2CC(CC(=O)NC(C)(C)c3cc(Cl)cc(Cl)c3)(NC(=O)c3cc(-c4ccc(F)cc4F)on3)C2)CC1 [Example 1.105]
5 to 100	O=C(CC1(NC(=O)c2cc(-c3ccc(F)cc3F)on2)CN(C2CCCCC2)C1)NC1(c2ccccc2)CC1 [Example 1.325]
5 to 100	CC(C)(NC(=O)CC1(NC(=O)c2cc(-c3ccc(F)cc3F)on2)CN(C2CC3CC3C2)C1)c1ccccn1 (centres unmarked) [Example 1.014]
< 5	CC(C)(NC(=O)CC1(NC(=O)c2cc(-c3ccc(F)cc3F)on2)CN([C@H]2CC[C@](C)(O)CC2)C1)c1cccc2cc[nH]c12 [Example 1.116]
5 to 100	Cc1cc(C(C)(C)NC(=O)CC2(NC(=O)c3cc(-c4ccc(F)cc4F)on3)CN(CC3(C)COC3)C2)ccn1 [Example 1.151]
5 to 100	CC(C)(NC(=O)CC1(NC(=O)c2cc(-c3ccc(F)cc3F)on2)CN([C@H]2CC[C@](C)(O)CC2)C1)c1ccc(F)cc1 [Example 1.260]
< 5	CCC(C)CN1CC(CC(=O)NC(C)(C)c2ccccn2)(NC(=O)c2cc(-c3ccc(F)cc3F)on2)C1 (centres unmarked) [Example 1.010]
5 to 100	CC(C)(NC(=O)CC1(NC(=O)c2cc(-c3ccc(F)cc3F)on2)CN([C@H]2CC[C@](C)(O)CC2)C1)c1ccc(F)cc1F [Example 1.287]
< 5	CC(C)(NC(=O)CC1(NC(=O)c2cc(-c3ccc(F)cc3F)on2)CN([C@H]2CC[C@@](C)(O)CC2)C1)c1cccc(C#N)c1 [Example 1.172]
1000 to 20000	CC(C)(O)CN1CC(CC(=O)NC(C)(C)c2ccc(F)cc2F)(NC(=O)c2cc(-c3ccc(F)cc3F)on2)C1 [Example 1.264]
5 to 100	CC(C)(NC(=O)CC1(NC(=O)c2cc(-c3ccc(F)cc3F)on2)CN([C@H]2CC[C@@](C)(O)CC2)C1)c1ccnc(C#N)c1 [Example 1.161]
< 5	CC(C)(NC(=O)CC1(NC(=O)c2cc(-c3ccc(F)cc3F)on2)CN([C@H]2CC[C@@](C)(O)CC2)C1)c1ccccc1C(F)(F)F [Example 1.292]
100 to 1000	CC(CN1CC(CC(=O)NC(C)(C)c2ccccn2)(NC(=O)c2cc(-c3ccc(F)cc3F)on2)C1)C(F)(F)F (centres unmarked) [Example 1.018]
5 to 100	CC(C)CN1CC(CC(=O)NC(C)(C)c2cccc(Cl)c2)(NC(=O)c2nnc(-c3ccc(F)cc3F)s2)C1 [Example 1.040]
1000 to 20000	C[C@H](NC(=O)CC1(NC(=O)c2cc(-c3ccc(F)cc3F)on2)CN(CC2CC2)C1)c1ccccn1 [Example 1.324]
5 to 100	CC(C)(C)CN1CC(CC(=O)NC2(c3ncccn3)CC2)(NC(=O)c2cc(-c3ccc(F)cc3F)on2)C1 [Example 1.330]
100 to 1000	COc1ccc(C(C)(C)NC(=O)CC2(NC(=O)c3cc(-c4ccc(F)cc4F)on3)CN([C@H]3CC[C@](C)(O)CC3)C2)c(F)c1 [Example 1.213]
100 to 1000	CC(C)(NC(=O)CC1(NC(=O)c2cc(-c3ccc(F)cc3F)sn2)CN([C@H]2CC[C@](C)(O)CC2)C1)c1cccc(Cl)c1 [Example 1.044]
100 to 1000	COc1cccc(C(C)(C)NC(=O)CC2(NC(=O)c3cc(-c4ccc(F)cc4F)on3)CN(CC3(C)COC3)C2)c1 [Example 1.174]
1000 to 20000	CC(C)(NC(=O)CC1(NC(=O)c2cc(-c3ccc(F)cc3F)on2)CN(c2ccccn2)C1)c1ccccn1 [Example 1.314]

IC50 [nM]	SMILES
100 to 1000	CC(C)(NC(=O)CC1(NC(=O)c2cc(-c3ccc(F)cc3F)on2)CN([C@H]2CC[C@](C)(O)CC2)C1)c1ccc(Cl)cc1 [Example 1.250]
< 5	CC(C)(NC(=O)CC1(NC(=O)c2cc(-c3ccc(F)cc3F)on2)CN([C@H]2CC[C@](C)(O)CC2)C1)c1ccncc1 [Example 1.182]
5 to 100	CCc1cccc(C(C)(C)NC(=O)CC2(NC(=O)c3cc(-c4ccc(F)cc4F)on3)CN([C@H]3CC[C@](C)(O)CC3)C2)c1 [Example 1.209]
5 to 100	CC(C)(NC(=O)CC1(NC(=O)c2cc(-c3ccc(F)cc3F)on2)CN(C2CCC3(CC2)COC3)C1)c1cc(Cl)cc(Cl)c1 [Example 1.092]
5 to 100	CC(C)(NC(=O)CC1(NC(=O)c2cc(-c3ccc(F)cc3F)on2)CN(C2CCOCC2)C1)c1cccc(Cl)c1 [Example 1.095]
5 to 100	CC(C)(NC(=O)CC1(NC(=O)c2cc(-c3ccc(F)cc3F)on2)CN([C@H]2CC[C@@](C)(O)CC2)C1)c1cccnc1 [Example 1.193]
5 to 100	CC(C)(NC(=O)CC1(NC(=O)c2cc(-c3ccc(F)cc3F)on2)CN(C2CC2)C1)c1ccccn1 [Example 1.313]
100 to 1000	Cc1cc(C(C)(C)NC(=O)CC2(NC(=O)c3cc(-c4ccc(F)cc4F)on3)CN(CC3COC3)C2)ccn1 [Example 1.136]
5 to 100	O=C(CC1(NC(=O)c2cc(-c3ccc(F)cc3F)on2)CN(C2CCCCC2)C1)NC1(c2ccccn2)CC1 [Example 1.306]
5 to 100	CC(C)(NC(=O)CC1(NC(=O)c2cc(-c3ccc(F)cc3F)on2)CN([C@H]2CC[C@](C)(O)CC2)C1)c1ccc(F)cc1Cl [Example 1.253]
< 5	CC(C)(NC(=O)CC1(NC(=O)c2cc(-c3ccc(F)cc3F)on2)CN([C@H]2CC[C@](C)(O)CC2)C1)c1cc(Cl)ccc1Cl [Example 1.088]
< 5	CC(C)(O)CN1CC(CC(=O)NC(C)(C)c2cccc(Cl)c2)(NC(=O)c2cc(-c3ccc(F)cc3F)on2)C1 [Example 1.178]
1000 to 20000	C[C@]1(O)CC[C@@H](N2CC(CC(=O)NCc3ccccc3)(NC(=O)c3cc(-c4ccc(F)cc4F)on3)C2)CC1 [Example 1.127]
5 to 100	Cc1ccnc(C(C)(C)NC(=O)CC2(NC(=O)c3nnc(-c4ccc(F)cc4F)s3)CN([C@H]3CC[C@](C)(O)CC3)C2)c1 [Example 1.338]
1000 to 20000	CC(C)(NC(=O)CC1(NC(=O)c2cc(-c3ccc(F)cc3F)on2)CN(C2CCCCC2)C1)c1ccc(F)cc1F [Example 1.263]
5 to 100	CC(C)(NC(=O)CC1(NC(=O)c2cc(-c3ccc(F)cc3F)on2)CN([C@H]2CC[C@](C)(O)CC2)C1)c1ccc(F)c(F)c1 [Example 1.257]
5 to 100	CC(C)(O)CCN1CC(CC(=O)NC(C)(C)c2cccc(F)c2)(NC(=O)c2cc(-c3ccc(F)cc3F)on2)C1 [Example 1.229]
100 to 1000	COc1cccc(C(C)(C)NC(=O)CC2(NC(=O)c3cc(-c4ccc(F)cc4F)on3)CN([C@H]3CC[C@](C)(O)CC3)C2)c1F [Example 1.196]
5 to 100	CC(C)CN1CC(CC(=O)NC(C)(C)c2cc(F)cc(F)c2)(NC(=O)c2cc(-c3ccc(F)cc3F)on2)C1 [Example 1.036]
5 to 100	CC(C)(NC(=O)CC1(NC(=O)c2cn(-c3ccc(F)cc3F)nn2)CN([C@H]2CC[C@@](C)(O)CC2)C1)c1cccc(Cl)c1 [Example 1.066]

IC50 [nM]	SMILES
5 to 100	Cn1cc(C(C)(C)NC(=O)CC2(NC(=O)c3cc(-c4ccc(F)cc4F)on3)CN(C3CCCCC3)C2)cn1 [Example 1.273]
< 5	COc1cc(Cl)cc(C(C)(C)NC(=O)CC2(NC(=O)c3cc(-c4ccc(F)cc4F)on3)CN([C@H]3CC[C@@](C)(O)CC3)C2)c1 [Example 1.160]
< 5	Cc1cccc(C(C)(C)NC(=O)CC2(NC(=O)c3cc(-c4ccc(F)cc4F)on3)CN([C@H]3CC[C@](C)(O)CC3)C2)c1 [Example 1.237]
1000 to 20000	Cc1c(C(=O)NC2(CC(=O)NC(C)(C)c3cccc(Cl)c3)CN(C3CCCCC3)C2)noc1-c1ccc(F)cc1F [Example 1.340]
1000 to 20000	CC(C)(NC(=O)CC1(NC(=O)c2cc(-c3ccc(F)cc3F)n[nH]2)CN([C@H]2CC[C@@](C)(O)CC2)C1)c1cccc(Cl)c1 [Example 1.053]
5 to 100	CCOc1cccc(C(C)(C)NC(=O)CC2(NC(=O)c3cc(-c4ccc(F)cc4F)on3)CN([C@H]3CC[C@](C)(O)CC3)C2)c1 [Example 1.187]
< 5	Cc1cc(C)nc(C(C)(C)NC(=O)CC2(NC(=O)c3nnc(-c4ccc(F)cc4F)s3)CN([C@H]3CC[C@](C)(O)CC3)C2)n1 [Example 1.061]
5 to 100	C[C@]1(O)CC[C@H](N2CC(CC(=O)NC3(c4ccccn4)CC3)(NC(=O)c3cc(-c4ccc(F)cc4F)on3)C2)CC1 [Example 1.191]
5 to 100	COc1cc(C)cc(C(C)(C)NC(=O)CC2(NC(=O)c3cc(-c4ccc(F)cc4F)on3)CN([C@H]3CC[C@@](C)(O)CC3)C2)c1 [Example 1.118]
5 to 100	COc1cc(F)cc(C(C)(C)NC(=O)CC2(NC(=O)c3cc(-c4ccc(F)cc4F)on3)CN([C@H]3CC[C@](C)(O)CC3)C2)c1 [Example 1.170]
100 to 1000	CC(C)(O)CN1CC(CC(=O)NC(C)(C)c2ccc(Cl)cc2)(NC(=O)c2cc(-c3ccc(F)cc3F)on2)C1 [Example 1.138]
100 to 1000	C[C@@H](NC(=O)CC1(NC(=O)c2cc(-c3ccc(F)cc3F)on2)CN(CC2CC2)C1)c1ccccn1 [Example 1.323]
1000 to 20000	Cn1nc(-c2ccc(F)cc2F)cc1C(=O)NC1(CC(=O)NC(C)(C)c2cccc(Cl)c2)CN([C@H]2CC[C@](C)(O)CC2)C1 [Example 1.059]
< 5	CC(C)(NC(=O)CC1(NC(=O)c2cc(-c3ccc(F)cc3F)on2)CN([C@H]2CC[C@](C)(O)CC2)C1)c1cccc(Cl)c1 [Example 1.221]
5 to 100	CC(C)(NC(=O)CC1(NC(=O)c2cc(-c3ccc(F)cc3F)on2)CN([C@H]2CC[C@](C)(O)CC2)C1)c1cccc(OC(F)(F)F)c1 [Example 1.198]
5 to 100	Cc1cc(C(C)(C)NC(=O)CC2(NC(=O)c3cn(-c4ccc(F)cc4F)nn3)CN(C3CCCCC3)C2)ccn1 [Example 1.074]
1000 to 20000	CC(C)(NC(=O)CC1(NC(=O)c2csc(-c3ccc(F)cc3F)n2)CN([C@H]2CC[C@](C)(O)CC2)C1)c1cccc(Cl)c1 [Example 1.051]
< 5	COc1ccnc(C(C)(C)NC(=O)CC2(NC(=O)c3cc(-c4ccc(F)cc4F)on3)CN([C@H]3CC[C@](C)(O)CC3)C2)c1 [Example 1.201]
< 5	CC(C)(NC(=O)CC1(NC(=O)c2cc(-c3ccc(F)cc3F)on2)CN([C@H]2CC[C@](C)(O)CC2)C1)c1cccc(C(F)(F)F)n1 [Example 1.156]

Source: patent US12448373B2, “Azetidinyl-acetamides as CXCR7 inhibitors” (CHEMOCENTRYX, INC., priority 2021, dated 2025)
